In US12611416B2, “Methods of treating ischemic stroke at risk for cerebral or cerebellar edema” (REMEDY PHARMACEUTICALS, INC., priority 2024, dated 2026):

System: large hemispheric infarction (LHI) patients at high risk for cerebral edema
Test: CHARM trial: intravenous glibenclamide in large hemispheric infarction, 90-day mRS shift analysis
Type: in vivo, human
Details: for common odds ratio (cOR), 90-day mRS: versus placebo; for lesion volume at which cOR crosses the "no effect" point (cOR=1.0): 90-day mRS, mRS 5 and 6 combined
Source text: The CHARM trial evaluated the safety and efficacy of intravenous glibenclamide as a treatment for large hemispheric infarction (LHI) patients at high risk for cerebral edema.
Patients meeting the following criteria were included: • A clinical diagnosis of acute ischemic stroke in the middle cerebral artery (MCA) territory. • A large hemispheric infarction defined as; lesion volume of 80 to 300 centimeters cubed (cm^3) on magnetic resonance imaging (MRI) diffusion-weighted imaging (DWI), or computed tomography perfusion (CTP), or an Alberta Stroke Program Early CT Score (ASPECTS) of 1 to 5 with involvement of at least 2 defined cortical regions. • Screening National Institutes of Health Stroke Scale (NIHSS) >=10. • At the time of randomization, and in the Investigator's judgement, it must be feasible for study drug treatment infusion to be initiated no later than 10 hours after time of symptom onset, if known, or the time last known normal. • Participants who wake with stroke may be included if neurological and other exclusion criteria are satisfied. The time of stroke onset is to be taken as the midpoint between sleep onset (or last known to be normal) and time of waking. • For participants who receive thrombectomy, inclusion into the study must be based on post-thrombectomy MRI-DWI.
Patients meeting the following criteria were excluded: • Participant is likely to have supportive care withdrawn on the first day. • Commitment to decompressive craniectomy (DC) prior to enrollment. • Evidence of concurrent infarction in the contralateral hemisphere sufficiently serious so as to affect functional outcome. Pre-Specified Primary Endpoint • Modified Rankin Scale (mRS) score at 90 days analyzed as a shift analysis using a 5-category ordinal scale with 0/1 and 5/6 collapsed. The primary efficacy analysis was pre-specified to be conducted in participants 18-70 years of age (inclusive) who were randomized and receive study treatment (the modified intent-to-treat [mITT] population].
Five hundred thirty-five subjects were enrolled, with 268 treated with placebo and 267 treated with intravenous glyburide. The mITT population (the primary analysis population), those participants aged […] years who received any study drug, consisted of 431 subjects.
An interaction term between treatment arm and stroke volume was included in an ordinal logistic regression model with 90-day mRS as the dependent variable. Independent variables included age, sex, baseline NIHSS, world region, tissue plasminogen activator, and thrombectomy.

## COc1ccc(Cl)cc1C(=O)NCCc1ccc(S(=O)(=O)NC(=O)NC2CCCCC2)cc1 [glibenclamide]
mITT subjects given glyburide in combination with thrombectomy (n=81), 95% CI 1.10-20.1, p=0.037
  common odds ratio (cOR), 90-day mRS: 4.69
mITT subjects with CTP or DWI baseline volume
  lesion volume at which cOR crosses the "no effect" point (cOR=1.0): about 140 cm^3
mITT subjects with CTP or DWI baseline volume, listed as glyburide
  lesion volume at which cOR crosses the "no effect" point (cOR=1.0): approximately 140 cm^3
mITT subjects with CTP or DWI baseline volume, lesion volume less than 85 cm^3, ordinal logistic regression, mRS 0/1 and 5/6 collapsed
  common odds ratio (cOR), 90-day mRS: about 6
mITT, baseline stroke volume ≤120 cm^3 subgroup, 95% CI 1.07-5.01, p=0.034
  common odds ratio (cOR), 90-day mRS: 2.31
